For the assay, the system named is isolated human stratum corneum (SC). The experiment in a line: DSC lipid disorganization (shift of melting transition temperatures) of treated stratum corneum. The note with it: 15 minutes per treatment, 75% RH, RT.

Description: Various compositions (alkaline versus acidic) and treatment protocols were tested and compared to determine which compositions and protocols produced the greatest degree of lipid disorganization, which is a common method for estimating the desquamation efficacy. All DSC experiments were performed on isolated human stratum corneum (SC). The SC was prepared using a standard protocol. Human abdominal skin remaining from plastic surgery was obtained in frozen form. Subcutaneous fat was removed and the dermis was separated from epidermis by plunging the skin into hot water (56° C.) for 1-2 min. The remaining viable epidermis was removed by tryptic digestion at 37° C. overnight. The SC was dried and stored at room temperature and ambient humidity. […]
The degree of lipid disorganization following treatment can be conveniently monitored by the shifts of the melting transition temperatures measured by Differential Scanning Calorimetry (DSC). […]
The maxima of the endothermic peaks corresponding to lipid phase transitions are determined using dedicated software (TA Universal Analysis). The peak position and the transition enthalpy are determined with respect to a manually defined linear baseline. […] The shifts of the melting peak positions (ΔTm(T2) and ΔTm(T3)) are calculated with respect to reference thermogrammes obtained with untreated or vehicle-treated samples. […]

With `O=C(O)CO` [70% GA, glycolic acid], the ΔT is recorded as −4.6 (Example 3, ΔTeffective=0.7·ΔTm(T2)+0.3ΔTm(T3) vs untreated or vehicle-treated SC, 0.1 gram, decrease of 2° C. considered significant) and −7.1 (Example 4, same manner as Example 3, different alkaline agents).

(Values after patent US20200030202A1, “TWO-STEP TREATMENT FOR DESQUAMATION OF SKIN” (L'OREAL, priority 2018, published 2020).)
